The values below are quoted from earlier work in US12594266B2, “Triterpenoid antifungals for the treatment or prevention of Pneumocystis spp. pneumonia” (priority 2019, dated 2026).

Where two headings read alike, the source gives them in different places. *1 amine or outer side, *2 acyl side, *3 side chain or, on linkers, in order; H or OH if unused. Where a SMILES comes first, the peptide text is derived from it. Bridges are numbered along the chain shown (N, C = ends). [ ]: non-standard residue; d: D form. The star is where a group is joined. hTyr(3S-OH,4S-OH,3'-OSO3H) = N[C@H](C(=O)O)[C@H](O)[C@@H](O)c1ccc(O)c(OS(=O)(=O)O)c1; Orn(4R-OH,5R-OH) = O=C([C@H](C[C@@H](O)[C@@H](O)N[*:3])N[*:1])[*:2]; Pro(3S-OH,4S-Me) = C[C@H]1CN[C@H](C(=O)O)[C@H]1O; X1 = CCCCCOc1ccc(-c2cc(-c3ccc(C(=O)*)cc3)no2)cc1; Gln(3R-OH) = NC(=O)C[C@@H](O)[C@H](N)C(=O)O; Hyp = O=C(O)[C@@H]1C[C@@H](O)CN1

For series [1] the following is noted: total radioactivity, 15 mg/kg oral, male pigmented Long-Evans rats, cited from earlier work.
The test system of a further series is Pneumocystis spp. Particulars: cited from earlier work; for relative effectiveness among echinocandins: murine PCP.

Regarding `CC(C)[C@@H](C)[C@@]1(C)CC[C@]2(C)[C@H]3CC[C@@H]4[C@@]5(COC[C@]4(C)[C@@H](OC[C@](C)(N)C(C)(C)C)[C@H](n4ncnc4-c4ccncc4)C5)C3=CC[C@@]2(C)[C@@H]1C(=O)O` [[^14C]-SCY-078], the AUCall in series [1] (Adrenal gland) is given as 321.126 μg equiv*h/g; in series [1] (Blood (cardiac)), 6.631 μg equiv*h/g; in series [1] (Bone marrow (femur)), 238.388 μg equiv*h/g; in series [1] (Bone), 9.022 μg equiv*h/g; in series [1] (Brain (cerebrum)) it was 0.727 μg equiv*h/g; in series [1] (Cecum), 83.542 μg equiv*h/g. For the same molecule, the AUCall in series [1] (Epididymis) is on record as 75.355 μg equiv*h/g; in series [1] (Esophagus) it was 41.430 μg equiv*h/g; in series [1] (Exorbital gland), 523.676 μg equiv*h/g; in series [1] (Eye (lens)) it was 0.084 μg equiv*h/g; in series [1] (Eye (uvea)) it was 777.035 μg equiv*h/g; in series [1] (Heart (myocardium)) it was 66.558 μg equiv*h/g. Besides, the AUCall in series [1] (Kidney (cortex)) is given as 165.880 μg equiv*h/g; in series [1] (Kidney (medulla)), 136.610 μg equiv*h/g; in series [1] (Large intestine) it was 57.682 μg equiv*h/g; in series [1] (Liver), 374.517 μg equiv*h/g; in series [1] (Lung), 175.593 μg equiv*h/g; in series [1] (Lymph node) it was 251.036 μg equiv*h/g. Further, the AUCall in series [1] (Oral mucosa) is listed as 36.782 μg equiv*h/g; in series [1] (Pancreas), 110.455 μg equiv*h/g; in series [1] (Pituitary), 640-809 μg equiv*h/g; in series [1] (Prostate gland) it was 61.301 μg equiv*h/g; in series [1] (Salivary gland) it was 149.193 μg equiv*h/g; in series [1] (Seminal vesicle) it was 26.827 μg equiv*h/g. Further, the AUCall is reported as 28.304 μg equiv*h/g in series [1] (Skeletal muscle); 74.884 μg equiv*h/g in series [1] (Skin (non-pigmented)); 110.249 μg equiv*h/g in series [1] (Skin (pigmented)); 141.607 μg equiv*h/g in series [1] (Small intestine); 507.638 μg equiv*h/g in series [1] (Spleen); 181.074 μg equiv*h/g in series [1] (Stomach (gastric mucosa)). For the same molecule, the AUCall in series [1] (Testis) is listed as 64.972 μg equiv*h/g; in series [1] (Thymus), 195.608 μg equiv*h/g; in series [1] (Thyroid), 291.187 μg equiv*h/g; in series [1] (Urinary bladder), 45.955 μg equiv*h/g. Besides, the “Tissue:Blood AUC Ratio” value is reported as 48.431 in series [1] (Adrenal gland); 1.000 in series [1] (Blood (cardiac)); 35.953 in series [1] (Bone marrow (femur)); 1.361 in series [1] (Bone); 0.110 in series [1] (Brain (cerebrum)); 12.600 in series [1] (Cecum). For the same molecule, the “Tissue:Blood AUC Ratio” value in series [1] (Epididymis) is listed as 11.365; in series [1] (Esophagus), 6.248; in series [1] (Exorbital gland), 78.980; in series [1] (Eye (lens)), 0.013; in series [1] (Eye (uvea)), 117.191; in series [1] (Heart (myocardium)) it was 10.038. Further, the “Tissue:Blood AUC Ratio” value in series [1] (Kidney (cortex)) is 25.018; in series [1] (Kidney (medulla)), 20.603; in series [1] (Large intestine) it was 8.727; in series [1] (Liver), 56.484; in series [1] (Lung), 26.483; in series [1] (Lymph node), 37.861. Also, the “Tissue:Blood AUC Ratio” value in series [1] (Oral mucosa) is 5.547; in series [1] (Pancreas) it was 16.659; in series [1] (Pituitary) it was 96.645; in series [1] (Prostate gland), 9.245; in series [1] (Salivary gland), 22.501; in series [1] (Seminal vesicle), 4.046. Further, the “Tissue:Blood AUC Ratio” value is recorded as 4.269 in series [1] (Skeletal muscle); 11.294 in series [1] (Skin (non-pigmented)); 16.627 in series [1] (Skin (pigmented)); 21.357 in series [1] (Small intestine); 75.561 in series [1] (Spleen); 27.309 in series [1] (Stomach (gastric mucosa)). The “Tissue:Blood AUC Ratio” value is recorded as 9.799 in series [1] (Testis), 29.501 in series [1] (Thymus), 43.916 in series [1] (Thyroid) and 6.931 in series [1] (Urinary bladder).

Turning to `CC[C@H](C)C[C@H](C)CCCCCCCCC(=O)N[C@H]1C[C@@H](O)[C@@H](NCCN)NC(=O)[C@@H]2[C@@H](O)CCN2C(=O)[C@H]([C@H](O)CCN)NC(=O)[C@H]([C@H](O)[C@@H](O)c2ccc(O)cc2)NC(=O)[C@@H]2C[C@@H](O)CN2C(=O)[C@H]([C@@H](C)O)NC1=O` [caspofungin], the “relative effectiveness among echinocandins” value with Pneumocystis spp. is recorded as “most effective”.

As for `CCCCCOc1ccc(-c2cc(-c3ccc(C(=O)N[C@H]4C[C@@H](O)[C@@H](O)NC(=O)[C@@H]5[C@@H](O)[C@@H](C)CN5C(=O)[C@H]([C@H](O)CC(N)=O)NC(=O)[C@H]([C@H](O)[C@@H](O)c5ccc(O)c(OS(=O)(=O)O)c5)NC(=O)[C@@H]5C[C@@H](O)CN5C(=O)[C@H]([C@@H](C)O)NC4=O)cc3)no2)cc1` [micafungin] (X1-[Orn(4R-OH,5R-OH)]T[Hyp][hTyr(3S-OH,4S-OH,3'-OSO3H)][Gln(3R-OH)][Pro(3S-OH,4S-Me)]; lactam 1-C), the “trophic burden versus untreated control mice” value in the series with Pneumocystis spp. (any dose, intraperitoneal, 3 weeks) was “no significant reduction”. Also, the “relative effectiveness among echinocandins” value in the series on Pneumocystis spp. is reported as “least effective”.
